Test results: patent US20220177587A1, “METHODS AND USES OF VARIANT CD80 FUSION PROTEINS AND RELATED CONSTRUCTS” (Alpine Immune Sciences, Inc., priority 2018, published 2022)
Values belong to the compound of their own block, whether it stands above or below them.

Key:
[1] = molecular target: T1, CD28 (Homo sapiens, UniProt P10747); test: Flow binding to Jurkat/IL2 reporter cells (CD28); parameters: host or cells: Jurkat cells expressing an IL-2-luciferase reporter
Protocol: (§1) Binding of selected immunomodulatory fusion proteins to cognate binding partners was assessed. […] Cells were sorted in a Bio-Rad S3 Cell Sorter (Bio-Rad Corp., USA) to >98% purity. Jurkat/IL2 reporter cells, which endogenously express CD28, were used to detect binding to CD28.
(§2) For staining and analysis by flow cytometry, 100,000 cells of appropriate transfected cells were plated in 96-well round bottom plates. Cells were spun down and resuspended in staining buffer (phosphate buffered saline (PBS), 1% bovine serum albumin (BSA), and 0.1% sodium azide) for 20 minutes to block non-specific binding. […] Primary staining was performed on ice for 45 minutes, before washing cells in staining buffer twice. Phycoerythrin (PE)-conjugated anti-human Fc (Jackson ImmunoResearch, USA) was diluted 1:150, added to cells and incubated another 30 minutes on ice. Cells were then washed twice with 150 μL/well stain buffer, fixed in 2% formaldehyde/PBS, and analyzed on Intellicyt flow cytometer (Intellicyt Corp., USA). PE Mean Fluorescence Intensity (MFI) was calculated for each cell type with FlowJo Version 10 software (FlowJo LLC, USA).
(§3) Binding assays were carried out to assess the specificity and affinity of multivalent proteins to cell-expressed CTLA-4, CD28, and PD-L1 counter structures.
(§4) The EC50 for binding also was determined.

[2] = molecular target: T1, CD28; test: Jurkat/IL2 + K562/OKT3 (no PD-L1) reporter assay of CD80 ECD-Fc (effector); format: cell-based; parameters: host or cells: Jurkat cells expressing an IL-2-luciferase reporter; conditions: aAPC without PD-L1
Protocol: The bioactivity of the generated molecules also was assessed using a Jurkat report assay as described in Examples 9 to assess CD28 costimulation of the molecules.

[3] = molecular target: huPD-L1 (Homo sapiens, UniProt Q9NZQ7); test: Flow binding to CHO cells stably expressing PD-L1; parameters: huCTLA4 and huPD-L1, full-length mammalian surface expression constructs were generated; expressed in transfected cells; host or cells: CHO cells, lentiviral transduction, sorted to >98% purity; conditions: 66.7 nM
Protocol: as §1, §2, §3, §4

[4] = molecular target: huCTLA4 (Homo sapiens, UniProt P16410); test: Flow binding to CHO cells stably expressing CTLA4; parameters: huCTLA4 and huPD-L1, full-length mammalian surface expression constructs were generated; expressed in transfected cells; host or cells: CHO cells, lentiviral transduction, sorted to >98% purity
Protocol: as §1, §2, §3, §4

[5] = test system: huPD-L1/MC38 cells; test: huPD-L1 MC38 tumor model, combination with oxaliplatin; format: in vivo, mouse; conditions: monotherapy
Protocol: To test the anti-tumor activity of the exemplary variant, it was evaluated alone or in combination with the platinum-based chemotherapeutic agent, oxaliplatin, in mice bearing human PD-L1-expressing MC38 tumors, which is a syngeneic mouse colon carcinoma solid tumor model.
The huPD-L1 MC38 cell line was generated by transducing parental MC38 cells with huPD-L1 using viral transduction. Eight-week old female C57/BL6NJ mice (The Jackson Laboratories, Sacramento, Calif.) were implanted subcutaneously with 0.5×10^6 huPD-L1/MC38 cells. For injections, 0.1 mL of cells (0.5×10^6 cells) were injected subcutaneously (SC) in the right mid-flank region.
On day 1, mice were randomized into four groups of 10 mice each, with all mice in each group having about equal mean tumor volumes (˜108 mm^3). Tumors were measured with electronic calipers two-dimensionally twice weekly, beginning on day 7 post-tumor cell implant (referred to as “day 1”). Tumor volume was calculated as length×(width×2)×0.5, with the length being the longer of the two measurements.
As shown, 30% of the mice in the monotherapy group were tumor free by the end of the study.

[6] = test system: huPD-L1 transduced MC38 tumor cells; test: In vitro cytotoxicity to huPD-L1 transduced MC38 tumor cells; format: cell-based, mouse; conditions: 100 nM or 10 nM; 72 hours; human pan T cells 1:5; FIG. 17
Protocol: This Example describes the assessment of in vitro cytotoxicity of huPD-L1 transduced MC38 tumor cells. MC38 tumor cells, non-transduced or transduced with huPD-L1, were treated with Mitomycin-C and plated with human pan T cells labelled with CFSE at a 1:5 ratio. […] As a control, an exemplary anti-PD-1 antibody nivolumab or an Fc (inert) only control also were assessed. Cells were then harvested and stained with 7-AAD viability dye. After acquiring samples on a flow cytometer, the percentage of dead cells was calculated using Flowjo analysis by gating on 7-AAD+ cells in the CFSE− gate.

[7] = test system: MC38 hPD-L1 tumor cells; test: MC38 hPD-L1 tumor model in C57BL/6 mice; format: in vivo, mouse
Protocol: Mouse MC38 tumor cells were stably transfected with human PD-L1 (MC38 hPD-L1) and implanted subcutaneously into C57BU6 mice. […] Tumor volume was tracked over time.
70 female C57CL/6 mice, containing similar tumor volumes of approximately 50-51 mm^3, following implantation of MC38 hPD-L1 tumor cells, were staged and divided into 5 treatment groups containing 14 mice each. […] Tumor volumes were measured on days 7, 10, and 12. On day 13, 5 animals were sacrificed for analysis as described in the sections below. Tumor measurements resumed for the remaining 9 mice for each group on days 17, 20 and 27. On days 26, 28, and 31, the animals in Group 1 (Fc isotype control) received an intratumoral injection of 100 μg E35D/M47L CD80-IgV-Fc.
95 female C57BU6 mice were implanted with MC38 hPD-L1 tumor cells. The tumors were staged on Day 7, and 77 mice with similar tumor volumes of approximately 60 mm^3 were divided into 7 treatment groups containing 11 mice each.
On day 49, tumor-free mice, from Groups 3, 4, 6, and 7, and 2 naïve C57CL/6 mice were re-challenged with an additional injection of hPD-L1 MC38 cells. Tumor volumes were measured on days 56, 59, and 63. The results are depicted in FIG. 13. […] At day 59, 8/8 mice from Group 3, 1/2 mice from Group 4, 1/1 mouse from Group 6, and 2/2 mice from Group 7 were tumor-free, and by day 63, all mice in Group 3, Group 4, Group 6, and Group 7 were tumor-free.
75 animals were staged into 3 treatment groups 7 days after implantation with hPD-L1 MC38 tumor cells. […] Tumor volumes were measured every 3-4 days, from Day 11 until Day 35. 3 days after the 1st dose, 2nd dose and 3rd dose, 4 mice from each group were sacrificed for tumor and LN analyses, leaving 13 mice for tumor volume measurements throughout the study period.

[8] = test system: primary human pan T cells; test: Cytokine production following PD-L1-dependent costimulation; format: cell-based; conditions: mitomycin-c treated K562/OKT3/PDL1 aAPC; FIG. 6
[9] = test system: Pan T cells; test: Primary T cell stimulation assay with K562/OKT3 +/- PD-L1 (IL-2, IFN-gamma, proliferation); format: cell-based, human; parameters: IL-2 release, K562/OKT3 (No PD-L1), CD80-IgV Fc (effector), 1 nM / IL-2 release, K562/OKT3 (No PD-L1), CD80-IgV Fc (effector), 10 nM / IL-2 release, K562/OKT3 (No PD-L1), CD80-IgV Fc (effector), 100 nM / IL-2 release, K562/OKT3/PD-L1, CD80-IgV Fc (inert), 1 nM / IL-2 release, K562/OKT3/PD-L1, CD80-IgV Fc (inert), 10 nM / IL-2 release, K562/OKT3/PD-L1, CD80-IgV Fc (inert), 100 nM: unit not given here; conditions: 72 hr; for IL-2 release, K562/OKT3 (No PD-L1), CD80-IgV Fc (effector), 1 nM / IL-2 release, K562/OKT3 (No PD-L1), CD80-IgV Fc (effector), 10 nM / IL-2 release, K562/OKT3 (No PD-L1), CD80-IgV Fc (effector), 100 nM: Pan T cells + K562/OKT3 (no PD-L1), effector Fc format (controls as labelled); for IL-2 release, K562/OKT3/PD-L1, CD80-IgV Fc (inert), 1 nM / IL-2 release, K562/OKT3/PD-L1, CD80-IgV Fc (inert), 10 nM / IL-2 release, K562/OKT3/PD-L1, CD80-IgV Fc (inert), 100 nM: Pan T cells + K562/OKT3/PD-L1, inert Fc format (controls as labelled)
Protocol: IFN-gamma, IL-2 and proliferation were determined after 72 hr. incubation.

[10] = test system: human pan T cells; test: Anti-CD3 coimmobilization assay, IFN-gamma; format: cell-based; conditions: Table E33; culture supernatant, 3 days
Protocol: Costimulatory bioactivity of CD80 fusion variants was determined in anti-CD3 coimmobilization assays. 1 nM or 4 nM mouse anti-human CD3 (OKT3, Biolegends, USA) was diluted in PBS with 1 nM to 80 nM rCD80.Fc variant proteins. This mixture was added to tissue culture treated flat bottom 96-well plates (Corning, USA) overnight to facilitate adherence of the stimulatory proteins to the wells of the plate. The next day, unbound protein was washed off the plates and 100,000 purified human pan T cells (BenTech Bio, US) or human T cell clone BC3 (Astarte Biologics, USA) were added to each well in a final volume of 200 μl of Ex-Vivo 15 media (Lonza, Switzerland). Cells were cultured 3 days before harvesting culture supernatants and measuring human IFN-gamma levels with Duoset ELISA kit (R&D Systems, USA) as described above.

[11] = test system: allogeneic CD4+ T cells; test: Mixed Lymphocyte Reaction (MLR), IFN-gamma; format: cell-based, human; conditions: Table E33; culture supernatant
Protocol: Soluble rCD80.Fc bioactivity was tested in a human Mixed Lymphocyte Reaction (MLR). Human primary dendritic cells (DC) were generated by culturing monocytes isolated from PBMC (BenTech Bio, USA) in vitro for 7 days with 500U/ml rIL-4 (R&D Systems, USA) and 250 U/ml rGM-CSF (R&D Systems, USA) in Ex-Vivo 15 media (Lonza, Switzerland). 10,000 matured DC and 100,000 purified allogeneic CD4+ T cells (BenTech Bio, USA) were co-cultured with variant CD80 Fc fusion proteins and controls in 96 well round bottom plates in 200 μl final volume of Ex-Vivo 15 media. On day 5, IFN-gamma secretion in culture supernatants was analyzed using the Human IFN-gamma Duoset ELISA kit (R&D Systems, USA). Optical density was measured by VMax ELISA Microplate Reader (Molecular Devices, USA) and quantitated against titrated rIFN-gamma standard included in the IFN-gamma Duo-set kit (R&D Systems, USA).

[12] = 3 injections of 100 μg on Days 8, 10 and 12
[13] = re-challenged on day 49 with hPD-L1 MC38 cells

huPD-L1, sequence (Q9NZQ7 19-290): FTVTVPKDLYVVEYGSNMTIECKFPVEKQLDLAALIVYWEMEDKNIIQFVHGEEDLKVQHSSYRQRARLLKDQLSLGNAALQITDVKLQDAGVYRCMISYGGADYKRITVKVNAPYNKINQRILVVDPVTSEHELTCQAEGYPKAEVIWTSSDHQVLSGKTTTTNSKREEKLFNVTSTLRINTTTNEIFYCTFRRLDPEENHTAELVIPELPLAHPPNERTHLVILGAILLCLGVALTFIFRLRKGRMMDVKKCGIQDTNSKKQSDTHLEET
huCTLA4, sequence (P16410 36-223): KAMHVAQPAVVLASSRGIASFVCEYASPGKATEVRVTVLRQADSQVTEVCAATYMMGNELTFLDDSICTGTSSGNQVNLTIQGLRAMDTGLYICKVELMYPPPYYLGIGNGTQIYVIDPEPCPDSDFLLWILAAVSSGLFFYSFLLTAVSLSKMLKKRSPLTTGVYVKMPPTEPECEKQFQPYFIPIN

Jurkat/CD28 MFI at 66.7 nM ([1]; 66.7 nM): 282
EC50 ([1]; flow binding, read-out: Jurkat/CD28 EC50): > 200 nM
Relative Luminescence at 98 pM [2]: 1042 RLU
Relative Luminescence at 391 pM [2]: 993 RLU
Relative Luminescence at 1563 pM [2]: 1049 RLU
Relative Luminescence at 6250 pM [2]: 1203 RLU
Relative Luminescence at 25000 pM [2]: 1730 RLU
Relative Luminescence at 100000 pM [2]: 2197 RLU
CHO/PD-L1 MFI at 66.7 nM [3]: 103
Compound: CD80 (S21P/L70Q/D90G/I118V/T120S/T130A) ECD-Fc: variant full CD80 ECD fused to effector human IgG1 Fc (SEQ ID NO:1527)

CHO/CTLA4 MFI at 66.7 nM ([4]; 66.7 nM): 24566
EC50 ([4]; flow binding): 10.5 nM
Relative Luminescence at 98 pM [2]: 949 RLU
Relative Luminescence at 391 pM [2]: 939 RLU
Relative Luminescence at 1563 pM [2]: 1022 RLU
Relative Luminescence at 6250 pM [2]: 1213 RLU
Relative Luminescence at 25000 pM [2]: 1558 RLU
Relative Luminescence at 100000 pM [2]: 2046 RLU
CHO/PD-L1 MFI at 66.7 nM [3]: 287
Compound: CD80 (E35D/D46E/M47V/V68M/D90G/K93E) ECD-Fc: variant full CD80 ECD fused to effector human IgG1 Fc (SEQ ID NO:1527)

Compound: O=C1[O][Pt]2([NH][C@@H]3CCCC[C@H]3[NH]2)[O]C1=O [oxaliplatin, reference compound]
antitumor activity [5]: only modestly effective as monotherapy
tumor free mice by the end of the study [5]: no tumor-free mice

Compound: nivolumab [reference compound]
cytotoxicity (percentage of dead 7-AAD+ tumor cells) [6]: cytotoxic activity was not observed

Compound: durvalumab [reference compound]
mice with no detectable tumors (tumor-free) upon completion of the study ([7]; 100 μg on days 7, 9 and 11, 11 mice per group): 2 mice
tumor-free mice at day 35 [7, 12]: 3/13
tumor-free mice on Day 18 [7, 12]: 3/13
tumor-free mice after re-challenge, day 59 [7, 13]: 2/2
tumor-free mice after re-challenge, day 63 [7, 13]: tumor-free
IL-2 secretion in culture supernatants [8]: IL-2 production was not observed

Compound: WT CD80 ECD-Fc (effector)
IL-2 release, K562/OKT3 (No PD-L1), CD80-IgV Fc (effector), 1 nM [9]: 11434
IL-2 release, K562/OKT3 (No PD-L1), CD80-IgV Fc (effector), 10 nM [9]: 20185
IL-2 release, K562/OKT3 (No PD-L1), CD80-IgV Fc (effector), 100 nM [9]: 23118
IL-2 release, K562/OKT3/PD-L1, CD80-IgV Fc (inert), 1 nM [9]: 507
IL-2 release, K562/OKT3/PD-L1, CD80-IgV Fc (inert), 10 nM [9]: 3114
IL-2 release, K562/OKT3/PD-L1, CD80-IgV Fc (inert), 100 nM [9]: 8393

Compound: Inert Fc Control
IL-2 release, K562/OKT3 (No PD-L1), CD80-IgV Fc (effector), 1 nM [9]: 7040
IL-2 release, K562/OKT3 (No PD-L1), CD80-IgV Fc (effector), 10 nM [9]: 6335
IL-2 release, K562/OKT3 (No PD-L1), CD80-IgV Fc (effector), 100 nM [9]: 5512
IL-2 release, K562/OKT3/PD-L1, CD80-IgV Fc (inert), 1 nM [9]: <LOD
IL-2 release, K562/OKT3/PD-L1, CD80-IgV Fc (inert), 10 nM [9]: 143
IL-2 release, K562/OKT3/PD-L1, CD80-IgV Fc (inert), 100 nM [9]: <LOD

Compound: WTCD80
Coimmobilization with anti-CD3 IFN-gamma [10]: 509 pg/mL
MLR IFN-gamma levels [11]: 19211 pg/mL
